The source of these data is patent US5776739A, “Process for producing disaccharides and novel disaccharides” (Kyowa Hakko Kogyo Co., Ltd., priority 1919, dated 1998).

For data set [1], the system named is alkaline phosphatase. Put plainly: Residual alkaline phosphatase activity after repeated freezing and thawing (Test Example 3). Type of data set: biochemical, calf. The note with it: sugar 50 mM; frozen (dry ice/ethanol) and thawed 10 times. The method, then: (§1) Each of the sample solutions (10 μl) was incubated at 37° C. in 2.0 ml of the reaction mixture consisting of 1M diethanol-amine buffer (pH 10.2), 0.2 mM magnesium chloride and 5 mM p-nitrophenyl phosphoric acid. Then, the enzyme activity was determined by the amount of p-nitrophenol produced therein, which was culculated on the basis of change in absorbance at 405 nm. The activity of each of the sample solutions immediately after the preparation was defined as 100%, and the residual activity in the stored sample solution was calculated.
(§2) A sample solution (unsupplemented) was prepared by diluting alkaline phosphatase with distilled water. Other sample solutions were prepared by adding, to the above solution, trehalose, maltose, glucosyl (α, 1-1)D-fucose or glucosyl (α, 1-4)L-fucose to the concentration of 50 mM. Each of the sample solutions was frozen by dry ice/ethanol and thawed at room temperature repeatedly 10 times in total. The activity of alkaline phosphatase in each of the sample solutions was determined in a manner similar to that employed in Test Example 1. The activity of each of the sample solutions immediately after the preparation was defined as 100%, and the residual activity in the frozen and thawed sample solution was calculated.

For data set [2], the system named is alkaline phosphatase. Kind of data set: Residual alkaline phosphatase activity after storage as solution at room temperature (Test Example 1). The class given is biochemical, calf. The note with it: for effective as a stabilizer for alkaline phosphatase: overall conclusion from Test Examples 1-4; for Residual activity: sugar 50 mM, solution, room temperature (25° C.), 24 hours. The method, then: A sample solution (unsupplemented) was prepared by diluting alkaline phosphatase (derived from calf small intestine, Boehringer Mannheim Biochemica) with distilled water. Other sample solutions were prepared by adding, to the above solution, trehalose, maltose, glucosyl (α, 1-1)D-fucose or glucosyl (α, 1-4)L-fucose to the concentration of 50 mM. The sample solutions were allowed to stand at room temperature (25° C.) for 24 hours, and the activity of alkaline phosphatase in each of the sample solutions was determined.
The activity of alkaline phosphatase was determined as follows.
as §1

The test system of data set [3] is alkaline phosphatase. Kind of data set: Residual alkaline phosphatase activity after storage in frozen form (Test Example 2). The class given is biochemical, calf. The note with it: sugar 50 mM; stored frozen at -20° C. for 6 days. The protocol:
as §1
A sample solution (unsupplemented) was prepared by diluting alkaline phosphatase with distilled water. Other sample solutions were prepared by adding, to the above solution, trehalose, maltose, glucosyl (α, 1-1)D-fucose or glucosyl (α, 1-4)L-fucose to the concentration of 50 mM. The sample solutions were stored in frozen form at -20° C. for 6 days. After thawing at room temperature, the activity of alkaline phosphatase in each of the sample solutions was determined in a manner similar to that employed in Test Example 1. The activity of each of the sample solutions immediately after preparation was defined as 100%, and the residual activity in the stored sample solution was calculated.

Data set [4] has as its system alkaline phosphatase. Kind of data set: Residual alkaline phosphatase activity after storage as dried powder (Test Example 4). The note with it: sugar 50 mM; dry powder stored at 50° C. for 24 hours. The class given is biochemical, calf. The protocol:
as §1
as §2, with “evaporated” for “frozen by dry ice/ethanol and thawed”, “to dryness using a vacuum pump to obtain dry powder, and the dry powder was stored at 50° C. for 24 hours.” for “repeatedly 10 times in total.”, “after” for “after the”, “stored” for “frozen and thawed”

For data set [5] the following is noted: C. Colaco et al., Bio/Technology, 10, 1007-1011 (1992); cited from earlier work.

Consider `C[C@H]1O[C@H](O[C@H]2O[C@H](CO)[C@@H](O)[C@H](O)[C@H]2O)[C@H](O)[C@@H](O)[C@H]1O` [Glucosyl (α, 1-1) D-fucose, glucosyl (α, 1-1)D-fucose], for which the Residual activity with alkaline phosphatase [1] was 65.0%; with alkaline phosphatase [2] it was 21.8%; in the data set with alkaline phosphatase [3] it was 36.3%; with alkaline phosphatase [4], 62.5%. Also, the “effective as a stabilizer for alkaline phosphatase” value (“effective as a stabilizer” below) in the data set with alkaline phosphatase [2] is “effective as a stabilizer for alkaline phosphatase”.

Regarding `C[C@@H]1OC(O)[C@@H](O)[C@H](O)[C@@H]1O[C@H]1O[C@H](CO)[C@@H](O)[C@H](O)[C@H]1O` (stereo partly drawn) [Glucosyl (α, 1-4) L-fucose, glucosyl (α, 1-4)L-fucose], the Residual activity in the data set on alkaline phosphatase [1] is 106.0%; in the data set on alkaline phosphatase [2] it was 93.7%; with alkaline phosphatase [3], 76.0%; with alkaline phosphatase [4] it was 83.0%. In addition, in the data set on alkaline phosphatase [2], the “effective as a stabilizer” value is “effective as a stabilizer for alkaline phosphatase”.

In the case of `OC[C@H]1O[C@H](O[C@H]2[C@H](O)[C@@H](O)[C@H](O)O[C@@H]2CO)[C@H](O)[C@@H](O)[C@@H]1O` [Maltose, glucosyl(α,1-4)D-glucose], the Residual activity in the data set with alkaline phosphatase [1] is listed as 16.3%; in the data set with alkaline phosphatase [2] it was 3.3%; in the data set on alkaline phosphatase [3], 20.0%; in the data set with alkaline phosphatase [4], 41.0%. Besides, in the data set on alkaline phosphatase [2], the “effective as a stabilizer” value is listed as “effective as a stabilizer for alkaline phosphatase”.

For `OC[C@H]1O[C@H](O[C@H]2O[C@H](CO)[C@@H](O)[C@H](O)[C@H]2O)[C@H](O)[C@@H](O)[C@@H]1O` [Trehalose, glucosyl(α,1-1)D-glucose], the Residual activity was 21.6% in the data set with alkaline phosphatase [1], 9.4% in the data set with alkaline phosphatase [2], 26.4% in the data set on alkaline phosphatase [3] and 55.0% in the data set on alkaline phosphatase [4]. Also, the “effective as a stabilizer” value with alkaline phosphatase [2] is recorded as “effective as a stabilizer for alkaline phosphatase”. Besides, the “enhance the stability of biopolymers such as enzyme proteins” value in data set [5] is “enhance the stability of biopolymers such as enzyme proteins”.
